Source: PubChem BioAssay (NCI)
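Cells were grown in 96-well plates and exposed to each compound for 48 hours at five concentrations; endpoints were interpolated linearly between bracketing concentrations, or set to the highest concentration if not reached. The concentration for 50% growth inhibition is given as GI50. TGI marks complete inhibition of growth.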

Assays:
Assay in all cases: NCI tumour cell line growth inhibition, 48 h
MOLT-4 leukemia = system: MOLT-4 leukemia
CCRF-CEM leukemia = system: CCRF-CEM leukemia
786-0 renal = system: 786-0 renal
SF-295 CNS = system: SF-295 CNS
PC-3 prostate = system: PC-3 prostate
TK-10 renal = system: TK-10 renal
NCI-H460 lung = system: NCI-H460 lung
A549 NSCLC = system: A549 NSCLC
SK-OV-3 ovarian = system: SK-OV-3 ovarian
SK-MEL-5 melanoma = system: SK-MEL-5 melanoma

Structure (SMILES)	GI50 (MOLT-4 leukemia)	TGI (MOLT-4 leukemia)	GI50 (CCRF-CEM leukemia)	TGI (CCRF-CEM leukemia)	GI50 (786-0 renal)	TGI (786-0 renal)	GI50 (SF-295 CNS)	TGI (SF-295 CNS)	GI50 (PC-3 prostate)	TGI (PC-3 prostate)	GI50 (TK-10 renal)	TGI (TK-10 renal)	GI50 (NCI-H460 lung)	TGI (NCI-H460 lung)	GI50 (A549 NSCLC)	TGI (A549 NSCLC)	GI50 (SK-OV-3 ovarian)	TGI (SK-OV-3 ovarian)	GI50 (SK-MEL-5 melanoma)	TGI (SK-MEL-5 melanoma)
Cc1ccc2c(O)c(O)cc(NC(C)CCCN)c2n1 (stereo not given)	2.6 µM	8.99 µM	3.73 µM	16.8 µM	> 100 µM	> 100 µM	> 48 µM	> 74.2 µM	22.9 µM	> 66.5 µM	> 100 µM	> 100 µM	36.4 µM	> 100 µM	24.3 µM	> 100 µM	> 78.6 µM	> 100 µM	9.38 µM	25.3 µM
CC(=O)OC1CC2(O)C3CCC4CC(O)CCC4(C)C3CCC2(C)C1C1=CC(=O)OC1 (stereo not given)		0.0593 µM		1.69 µM		0.107 µM		0.222 µM		0.373 µM		0.489 µM		0.124 µM		0.0323 µM		0.642 µM		0.116 µM
CN(C)C(=O)c1cc2cnc(Nc3ccc(-c4csc5c(=O)cc(N6CCOCC6)oc45)cc3)nc2n1C1CCCC1	0.23 µM	3.26 µM	0.205 µM	18.3 µM	0.162 µM	4.25 µM	0.242 µM	1.14 µM	0.22 µM	1.47 µM	0.194 µM	> 100 µM	0.209 µM	1.18 µM	0.213 µM	> 100 µM	0.478 µM	2.88 µM	0.146 µM	0.423 µM
COc1cc(-c2nc3sc4c(c3c(=O)[nH]2)CCCCCC4)cc(OC)c1OC	1.86 µM	> 33.2 µM	1.28 µM	> 33.2 µM	1.46 µM	23.2 µM	0.692 µM	6.53 µM	1.5 µM	> 33.2 µM	13.8 µM	> 33.2 µM	1.2 µM	> 33.2 µM	1.95 µM	> 33.2 µM	0.89 µM	16.4 µM	0.853 µM	2.96 µM
O=C(O)c1ccc(N/C=C2\C(=O)c3ccccc3OC2O)cc1O (stereo not given)	13.2 µg/mL	77.9 µg/mL	13.8 µg/mL	59.6 µg/mL	28.5 µg/mL	52.3 µg/mL	5.96 µg/mL	28.7 µg/mL	31.6 µg/mL	107 µg/mL	36 µg/mL	106 µg/mL	32.3 µg/mL	78.3 µg/mL	55.1 µg/mL	> 150 µg/mL	28.8 µg/mL	74.6 µg/mL	17.6 µg/mL	37.6 µg/mL
COc1cc2c[n+](C)c3c4ccccc4ccc3c2cc1OC (tested in a mixture with another compound)	0.514 µM	50.5 µM	2.08 µM	> 70.6 µM	4.53 µM	39.5 µM		71.5 µM		20.1 µM		87.3 µM	2.96 µM	31.7 µM		39.3 µM		51.2 µM	7.6 µM	29 µM
Cc1cc(C)c(O)c(CN(C)Cc2cc(Cl)cc(Cl)c2O)c1	3.45 µM	34.7 µM	2.7 µM	14.8 µM	9.38 µM	28.6 µM	2.18 µM	6.18 µM	6.97 µM	42.3 µM	4.95 µM	25.6 µM	3.49 µM	13.7 µM	5.41 µM	28.5 µM	6.48 µM	33 µM	5.57 µM	18.2 µM
C=CCC1(O)c2cccc(NCCO)c2C(=O)c2c(NCCO)cccc21	> 100 µM	> 100 µM	> 100 µM	> 100 µM	> 100 µM	> 100 µM	> 100 µM	> 100 µM	> 100 µM	> 100 µM	> 100 µM	> 100 µM	> 100 µM	> 100 µM	> 100 µM	> 100 µM	> 100 µM	> 100 µM	> 100 µM	> 100 µM
C#Cc1c(C(N)=O)ncn1C1OC(COP(=O)(OCc2ccc([N+](=O)[O-])o2)N(C)CCCCCl)C(O)C1O (stereo not given)	83.7 µM	> 100 µM	21.9 µM	> 100 µM	36.3 µM	> 100 µM	31.2 µM	> 100 µM	53.5 µM	> 100 µM	43.1 µM	> 100 µM	34.1 µM	> 100 µM	28.5 µM	> 100 µM	77 µM	> 100 µM	2.83 µM	26.5 µM
O=C(O)c1cc(N=Cc2ccccc2O)cc(C(=O)O)c1		> 100 µM		> 100 µM		> 100 µM		> 100 µM		> 100 µM		> 100 µM		> 100 µM		> 100 µM		> 100 µM		> 100 µM
